# Test results reported in patent US10793914B2, “Cancer-related biological materials in microvesicles” (THE GENERAL HOSPITAL CORPORATION, priority 2010, dated 2020).
# System: medulloblastoma D384 cells
# Test: exoDNA yield in microvesicles after inhibition of DNA replication with L-mimosine
# Format: cell-based, human
# Settings: D384 cells treated with L-mimosine (200, 400 and 600 μM), microvesicles isolated from medium after 48 hrs, ssDNA yield compared to mock treated cells
# Protocol: D384 cells were seeded in 6-well plates and treated with increasing dosages of L-mimosine (200, 400 and 600 μM) or mock treated. Microvesicles were isolated from the medium after 48 hrs and ssDNA was extracted using the Qiagen PCR purification kit. Single-stranded DNA yields were quantified using the Bioanalyzer and the yields were compared to mock treated cells (normalized to 1.0).
# We used L-mimosine to inhibit DNA replication and examined whether the inhibition affected the yield of exoDNA. If the exoDNA yield is decreased after inhibition, it is very likely that exoDNA may contain fragments of genomic DNA.
# Specifically, D384 cells were plated on 6-well plates (2×10^6 cells/well) and treated with increasing amounts (200, 400 and 600 μM) of L-mimosine (Sigma-Aldrich, St. Louis, Mo.) which is an inhibitor of DNA replication. The drug was added at one time point and 48 hrs after, the media was collected and processed for the isolation of microvesicles. Cell viability was assessed by cell count using the Countess Automated Cell Counter (Invitogen). SsDNA yields are normalized to one.
structure (smiles),measurement,value
N[C@@H](Cn1ccc(=O)c(O)c1)C(=O)O [L-mimosine],decrease of exoDNA yield in microvesicles,about 50%
